In patent publication US20230183224A1, “BEZOXAZINE DERIVATIVES USEFUL AS MONOACYLGLYCEROL LIPASE INHIBITORS” (Hoffmann-La Roche Inc., priority 2017, published 2023) one finds IC50 data, which are given here for 17 compounds.

For the experiment, the target named is T1, MAGL (recombinant wild-type) (Homo sapiens, UniProt Q99685).
T1 sequence (Q99685 1-303): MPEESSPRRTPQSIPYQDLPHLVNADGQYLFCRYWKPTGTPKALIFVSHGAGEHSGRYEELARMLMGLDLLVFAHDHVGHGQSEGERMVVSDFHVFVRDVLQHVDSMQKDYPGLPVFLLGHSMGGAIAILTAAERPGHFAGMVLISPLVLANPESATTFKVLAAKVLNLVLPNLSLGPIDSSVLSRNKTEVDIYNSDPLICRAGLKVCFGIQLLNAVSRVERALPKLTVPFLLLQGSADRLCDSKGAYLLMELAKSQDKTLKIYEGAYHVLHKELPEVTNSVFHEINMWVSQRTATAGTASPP
Briefly: MAGL inhibitory activity, hydrolysis of 4-nitrophenylacetate to 4-nitrophenol (absorbance at 405 nm). The conditions noted are these: 1 nM MAGL, 300 μM 4-nitrophenylacetate, 15 min preincubation at RT, slope of absorbance at 405 nm between 5 and 80 min. In kind it is biochemical. How it is done: Compounds were profiled for MAGL inhibitory activity by measuring the enzymatic activity of MAGL by following the hydrolysis of 4-nitorphenylacetate resulting in 4-nitrophenol, which absorbs at 405-412 nm (G. G. Muccioli, G. Labar, D. M. Lambert, Chem. Bio. Chem. 2008, 9, 2704-2710).
The assay was carried out in 384 well assay plates (black with clear bottom, non-binding surface treated, Corning Ref. 3655) in a total volume of 40 μL. Compound dilutions were made in 100% DMSO (VWR Chemicals 23500.297) in a polypropylene plate in 3-fold dilution steps to give a final concentration range in the assay from 25 μM to 1.7 nM. 1 μL compound dilutions (100% DMSO) were added to 19 μL MAGL (recombinant wild-type) in assay buffer (50 mM TRIS (GIBCO, 15567-027), 1 mM EDTA (Fluka, 03690-100 ml)). The plate was shaked for 1 min at 2000 rpm (Variomag Teleshake) and then incubated for 15 min at RT. To start the reaction, 20 μL 4-Nitrophenlyacetate (Sigma N-8130) in assay buffer with 6% EtOH was added. The final concentrations in the assay were 1 nM MAGL and 300 μM 4-Nitrophenylacetate. After shaking (1 m, 2000 rpm) and 5 min incubation at RT, the absorbance at 405 nm was measured for a first time (Molecular Devices, SpectraMax Paradigm). A second measurement was then done after incubation for 80 min at RT. From the two measurements, the slope was calculated by subtracting the first from the second measurement.
Regarding `O=C1COc2ccc(C(=O)N3CCN(Cc4ccccc4)CC3)cc2N1` [Example 2, 6-(4-benzylpiperazine-1-carbonyl)-4H-1,4-benzoxazin-3-one], the IC50 came to 3.72 µM.
As to `O=C1COc2ccc(C(=O)N3CCC(N4C[C@H](c5ccccc5)OC4=O)CC3)cc2N1` [Example 11, 6-[4-[(5S)-2-oxo-5-phenyl-1,3-oxazolidin-3-yl]piperidine-1-carbonyl]-4H-1,4-benzoxazin-3-one], the IC50 was found to be 1.26 µM.
Regarding `O=C1COc2ccc(C(=O)N3CCC(O)(Cc4ccccc4)CC3)cc2N1` [Example 7, 6-(4-benzyl-4-hydroxypiperidine-1-carbonyl)-4H-1,4-benzoxazin-3-one], the IC50 amounted to 4.35 µM.
Turning to `O=C1COc2ccc(C(=O)N3CCC(Cc4ccc(F)cc4)CC3)cc2N1` [Example 3, 6-[4-[(4-fluorophenyl)methyl]piperidine-1-carbonyl]-4H-1,4-benzoxazin-3-one], the IC50 was determined as 0.088 µM.
`O=C1COc2ccc(C(=O)N3CCC(Cc4ccccc4)C3)cc2N1` (centres unmarked) [Example 28, 6-(3-benzylpyrrolidine-1-carbonyl)-4H-1,4-benzoxazin-3-one]: the IC50 was determined as 0.84 µM.
The figure for `N#Cc1ccc(CC2CCN(C(=O)c3ccc4c(c3)NC(=O)CO4)CC2)cc1` [Example 20, 4-[[1-(3-oxo-4H-1,4-benzoxazine-6-carbonyl)piperidin-4-yl]methyl]benzonitrile] is 0.37 µM.
As for `O=C1COc2ccc(C(=O)N3CCC(Cc4ccccc4)CC3)nc2N1` [Example 26, 6-(4-benzylpiperidine-1-carbonyl)-4H-pyrido[3,2-b][1,4]oxazin-3-one], the IC50 is 2.06 µM.
On to `O=C1COc2ccc(C(=O)N3CCC(Cc4cc(F)cc(F)c4)CC3)cc2N1` [Example 9, 6-[4-[(3,5-difluorophenyl)methyl]piperidine-1-carbonyl]-4H-1,4-benzoxazin-3-one], for which the IC50 is 0.058 µM.
For `O=C1COc2ccc(C(=O)N3CCC(Cc4ccc(C(F)(F)F)cc4)C3)cc2N1` (centres unmarked) [Example 31, 6-[3-[[4-(trifluoromethyl)phenyl]methyl]pyrrolidine-1-carbonyl]-4H-1,4-benzoxazin-3-one], the IC50 was 0.4 µM.
For `O=C1COc2ccc(C(=O)N3CCC(Cc4ccc(Cl)cc4)CC3)cc2N1` [Example 12, 6-[4-[(4-chlorophenyl)methyl]piperidine-1-carbonyl]-4H-1,4-benzoxazin-3-one], the IC50 worked out at 0.048 µM.
Regarding `O=C1COc2ccc(C(=O)N3CCC(Cc4cccc(F)c4F)CC3)cc2N1` [Example 16, 6-[4-[(2,3-difluorophenyl)methyl]piperidine-1-carbonyl]-4H-1,4-benzoxazin-3-one], the IC50 was 0.066 µM.
Take `O=C1COc2ccc(C(=O)N3CCC(S(=O)(=O)c4ccccc4)CC3)cc2N1` [Example 10, 6-[4-(benzenesulfonyl)piperidine-1-carbonyl]-4H-1,4-benzoxazin-3-one]: the IC50 was 4.22 µM.
Consider `O=C1COc2ccc(C(=O)N3CCC(Oc4ccccc4)C3)cc2N1` (centres unmarked) [Example 18, 6-(3-phenoxypyrrolidine-1-carbonyl)-4H-1,4-benzoxazin-3-one], for which the IC50 stood at 1.04 µM.
On to `O=C1COc2ccc(C(=O)N3CCC(C(=O)N4CCCCC4)CC3)cc2N1` [Example 27, 6-[4-(piperidine-1-carbonyl)piperidine-1-carbonyl]-4H-1,4-benzoxazin-3-one], for which the IC50 worked out at 4.24 µM.
On to `O=C1COc2ccc(C(=O)N3CC(Cc4ccc(C(F)(F)F)cc4)C3)cc2N1` [Example 29, 6-[3-[[4-(trifluoromethyl)phenyl]methyl]azetidine-1-carbonyl]-4H-1,4-benzoxazin-3-one], for which the IC50 was 0.15 µM.
Next, `CN(C(=O)c1ccccc1)C1CCN(C(=O)c2ccc3c(c2)NC(=O)CO3)CC1` [Example 25, N-methyl-N-[1-(3-oxo-4H-1,4-benzoxazine-6-carbonyl)piperidin-4-yl]benzamide]: 0.83 µM.
Turning to `COc1cccc(CC2CCN(C(=O)c3ccc4c(c3)NC(=O)CO4)CC2)c1` [Example 6, 6-[4-[(3-methoxyphenyl)methyl]piperidine-1-carbonyl]-4H-1,4-benzoxazin-3-one], the IC50 stood at 0.052 µM.

As a reminder, the IC50 is the concentration that gives 50% inhibition.
